# Laboratory results from patent publication US11040981B2, “Pyrrolotriazine compounds and methods of inhibiting TAM kinases” (Syros Pharmaceuticals, Inc., priority 2017, dated 2021).
# Legend:
# [1] = molecular target: T1, TYRO3 (Homo sapiens, UniProt Q06418); assay: TR-FRET kinase activity assay, TYRO3; assay type: biochemical; conditions: ATP at Km, 60 minutes
# T1 sequence (Q06418 41-890): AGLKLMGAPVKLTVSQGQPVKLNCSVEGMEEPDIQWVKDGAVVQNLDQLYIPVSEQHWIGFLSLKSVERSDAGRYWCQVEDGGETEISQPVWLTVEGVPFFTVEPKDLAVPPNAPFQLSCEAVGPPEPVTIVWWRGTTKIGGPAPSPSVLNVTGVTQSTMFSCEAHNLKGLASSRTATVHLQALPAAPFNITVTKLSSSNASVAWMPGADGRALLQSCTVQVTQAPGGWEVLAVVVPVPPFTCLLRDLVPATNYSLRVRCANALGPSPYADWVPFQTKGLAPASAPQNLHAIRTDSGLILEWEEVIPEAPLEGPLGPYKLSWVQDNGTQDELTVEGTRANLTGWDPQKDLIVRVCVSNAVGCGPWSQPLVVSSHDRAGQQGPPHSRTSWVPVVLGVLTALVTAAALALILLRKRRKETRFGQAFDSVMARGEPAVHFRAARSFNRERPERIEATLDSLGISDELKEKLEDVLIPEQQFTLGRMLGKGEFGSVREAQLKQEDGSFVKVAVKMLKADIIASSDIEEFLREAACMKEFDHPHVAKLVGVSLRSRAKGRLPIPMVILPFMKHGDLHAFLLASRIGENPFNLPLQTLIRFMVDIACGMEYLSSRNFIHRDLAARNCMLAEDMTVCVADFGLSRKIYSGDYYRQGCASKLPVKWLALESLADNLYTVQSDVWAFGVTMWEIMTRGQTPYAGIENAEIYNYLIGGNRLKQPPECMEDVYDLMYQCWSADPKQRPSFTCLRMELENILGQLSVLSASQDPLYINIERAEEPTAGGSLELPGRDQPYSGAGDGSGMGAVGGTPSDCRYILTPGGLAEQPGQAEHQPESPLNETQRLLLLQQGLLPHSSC
# Outline: (§1)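 Recombinant human kinases, fluorescent peptide substrate, ATP at Km; 1 h RT, pH 7.5. EDTA-quenched, Eu antibody added, TR-FRET read; IC50 determined.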
# [2] = molecular target: T2, FLT3 (Homo sapiens, UniProt P36888); assay: TR-FRET kinase activity assay, FLT3; assay type: biochemical; conditions: ATP at Km, 60 minutes
# T2 sequence (P36888 27-993): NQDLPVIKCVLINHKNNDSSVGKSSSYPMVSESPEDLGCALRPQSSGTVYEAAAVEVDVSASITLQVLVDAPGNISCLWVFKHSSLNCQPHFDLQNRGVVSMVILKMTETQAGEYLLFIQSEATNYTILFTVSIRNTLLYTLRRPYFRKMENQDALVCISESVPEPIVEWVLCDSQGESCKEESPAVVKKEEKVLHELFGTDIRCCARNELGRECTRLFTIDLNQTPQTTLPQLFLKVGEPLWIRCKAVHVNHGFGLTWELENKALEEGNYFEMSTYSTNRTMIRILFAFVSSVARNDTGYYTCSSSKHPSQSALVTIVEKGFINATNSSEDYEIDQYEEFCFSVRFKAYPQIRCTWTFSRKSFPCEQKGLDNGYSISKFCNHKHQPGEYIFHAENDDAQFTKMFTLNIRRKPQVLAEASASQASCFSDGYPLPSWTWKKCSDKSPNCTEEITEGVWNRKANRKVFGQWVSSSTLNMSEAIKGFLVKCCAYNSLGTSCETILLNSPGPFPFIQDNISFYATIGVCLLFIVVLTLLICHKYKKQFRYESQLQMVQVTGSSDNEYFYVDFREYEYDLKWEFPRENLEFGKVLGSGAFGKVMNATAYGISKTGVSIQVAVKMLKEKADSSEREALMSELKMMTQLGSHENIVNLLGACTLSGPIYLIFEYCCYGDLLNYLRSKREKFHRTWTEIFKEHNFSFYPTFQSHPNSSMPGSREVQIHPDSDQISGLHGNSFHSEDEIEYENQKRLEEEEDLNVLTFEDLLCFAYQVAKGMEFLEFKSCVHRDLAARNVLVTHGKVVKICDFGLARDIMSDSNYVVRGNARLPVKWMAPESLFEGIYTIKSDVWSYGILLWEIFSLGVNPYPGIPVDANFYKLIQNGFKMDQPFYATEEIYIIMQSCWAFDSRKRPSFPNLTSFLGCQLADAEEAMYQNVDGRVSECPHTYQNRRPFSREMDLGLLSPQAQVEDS
# Outline: as §1
SMILES,IC50 [1] [nM],IC50 [2] [nM]
COC[C@H](C)Nc1ncc2c(-c3ccc(CC(=O)O)cc3)cc([C@H]3CC[C@H](O)CC3)n2n1 [Compound 133],≤ 100,100 to 1000
"COC[C@H](C)Nc1ncc2c(-c3cnn(C4COC4)c3)cc([C@H]3CC[C@](C)(O)CC3)n2n1 (single isomer, unassigned) [Compound 452]",≤ 100,100 to 1000
COC[C@H](C)Nc1ncc2c(-c3cnn(C[C@@H]4CCO4)c3)cc([C@H]3CC[C@H](O)CC3)n2n1 [Compound 474],≤ 100,100 to 1000
COC[C@H](C)Nc1ncc2c(CC#N)cc([C@H]3CC[C@H](O)CC3)n2n1 [Compound 497],≤ 100,1000 to 10000
CNS(=O)(=O)c1ccc(-c2cc([C@H]3CC[C@H](O)CC3)n3nc(N[C@@H](C)COC(F)F)ncc23)cn1 [Compound 424],≤ 100,100 to 1000
COC[C@H](C)Nc1ncc2c(C#N)cc([C@H]3CC[C@H](O)CC3)n2n1 [Compound 481],100 to 1000,1000 to 10000
COC[C@H](C)Nc1ncc2c(C3=C[C@@H]4CC[C@H](C3)N4C)cc([C@H]3CC[C@H](O)CC3)n2n1 [Compound 465],≤ 100,1000 to 10000
COC[C@H](C)Nc1ncc2c(-c3cnn(C4COC4)c3)cc(C3CCOCC3)n2n1 [Compound 503],≤ 100,1000 to 10000
COC[C@H](C)Nc1ncc2c(-c3cnn(C(C)(C)C(=O)N4CCN(C)CC4)c3)cc([C@H]3CC[C@H](O)CC3)n2n1 [Compound 466],≤ 100,1000 to 10000
COC[C@H](C)Nc1ncc2c(-c3cnn(C[C@H]4CC(=O)N(C)C4)c3)cc([C@H]3CC[C@H](O)CC3)n2n1 [Compound 475],≤ 100,100 to 1000
COC[C@H](C)Nc1ncc2c(-c3ccc(C(C)(C)C(=O)N4CCOCC4)s3)cc([C@H]3CC[C@H](O)CC3)n2n1 [Compound 460],≤ 100,≤ 100
COC[C@H](C)Nc1ncc2c(C3=CCNCC3)cc([C@H]3CC[C@H](O)CC3)n2n1 [Compound 443],≤ 100,1000 to 10000

# Results, then the compound that gave them:
IC50 [1] [nM],IC50 [2] [nM],SMILES
≤ 100,100 to 1000,COC[C@H](C)Nc1ncc2c(-c3ccnc(N4CCOC5(COC5)C4)c3)cc([C@H]3CC[C@H](O)CC3)n2n1 [Compound 480]
≤ 100,100 to 1000,COC[C@H](C)Nc1ncc2c(-c3ccnc(N4CCOCC4=O)c3)cc([C@H]3CC[C@H](O)CC3)n2n1 [Compound 423]
≤ 100,100 to 1000,COC[C@H](C)Nc1ncc2c(-c3ccnc(N4CCC5(CCO5)CC4)c3)cc([C@H]3CC[C@H](O)CC3)n2n1 [Compound 430]
≤ 100,100 to 1000,COC[C@H](C)Nc1ncc2c(-c3ccnc(N4CCN(C(=O)C5COC5)CC4)c3)cc([C@H]3CC[C@H](O)CC3)n2n1 [Compound 500]
≤ 100,100 to 1000,COC[C@H](C)Nc1ncc2c(-c3ccnc(N4CCC5(COC5)C4)c3)cc([C@H]3CC[C@H](O)CC3)n2n1 [Compound 493]
≤ 100,100 to 1000,COC[C@H](C)Nc1ncc2c(-c3ccnc(Oc4cccnc4)c3)cc([C@H]3CC[C@H](O)CC3)n2n1 [Compound 490]
≤ 100,1000 to 10000,COC[C@H](C)Nc1ncc2c(-c3ccnc(N4CCc5nc(C)sc5C4)c3)cc([C@H]3CC[C@H](O)CC3)n2n1 [Compound 509]
≤ 100,1000 to 10000,COC[C@H](C)Nc1ncc2c(-c3ccnc(F)c3)cc([C@H]3CC[C@H](O)CC3)n2n1 [Compound 505]
≤ 100,100 to 1000,COC[C@H](C)Nc1ncc2c(-c3cccc(C4CCc5nc(C)[nH]c5C4)c3)cc([C@H]3CC[C@H](O)CC3)n2n1 (stereo partly shown) [Compound 498]
≤ 100,100 to 1000,CCC(=O)N1CCN(c2cc(-c3cc([C@H]4CC[C@H](O)CC4)n4nc(N[C@@H](C)COC)ncc34)ccn2)CC1 [Compound 432]
≤ 100,1000 to 10000,COC[C@H](C)Nc1ncc2c(-c3ccnc(N4CCOC4=O)c3)cc([C@H]3CC[C@H](O)CC3)n2n1 [Compound 438]
